In patent US6949536B2, “Sulfonylbenzene compounds as anti-inflammatory/analgesic agents” (Pfizer, Inc., priority 1998, dated 2005):
Where a name gives a salt, the structure may show the parent alone.

melting point [°C] | SMILES
216 | Cc1onc(-c2ccc(-c3cscn3)cc2)c1-c1ccc(S(N)(=O)=O)c(F)c1 [Example 172, 2-Fluoro-4-{5-methyl-3-[4-(1,3-thiazol-4-yl)phenyl]-4-isoxazolyl}benzenesulfonamide]
204 to 206 | COC(=O)c1cc(-c2ccc(-c3nccs3)cc2)n(-c2ccc(S(N)(=O)=O)cc2)n1 [Example 88, Methyl 1-(4-sulfamoylphenyl)-5-[4-(2-thiazolyl)phenyl]-1H-pyrazole-3-carboxylate]
138 to 140 | COc1cc(-c2cc(C(F)(F)F)nn2-c2ccc(S(C)(=O)=O)cc2)ccc1-c1ccco1 (as salt: hydrochloride) [Example 81, 1-[4-(Methylsulfonyl)phenyl]-5-[4-(2-furyl)-3-methoxyphenyl]-3-(trifluoromethyl)-1H-pyrazole]
148 to 150 | Cc1cc(-c2cc(C(F)(F)F)nn2-c2ccc(S(C)(=O)=O)cc2)ccc1-c1cocn1 (as salt: hydrochloride) [Example 112, 4-{2-Methyl-4-[1-[4-(methylsulfonyl)phenyl]-3-(trifluoromethyl)-1H-pyrazol-5-yl]phenyl}-1,3-oxazole]
156 to 158 | CS(=O)(=O)c1ccc(-n2nc(C(F)(F)F)cc2-c2ccc(-c3cscn3)c(F)c2)cc1F [Example 105, 4-{4-[1-[3-Fluoro-4-(methylsulfonyl)phenyl]-3-(trifluoromethyl)-1H-pyrazol-5-yl]-2-fluorophenyl}-1,3-thiazole]
198 to 201 | CS(=O)(=O)c1ccc(C2=C(c3ccc(-c4cccs4)cc3)C(=O)OC2)cc1 [Example 33, 3-[4-(2-Thienyl)phenyl]-4-[4-(methylsulfonyl)phenyl]-2-(5H)-furanone]
179 to 182 | Cc1ccc(-c2ccc(S(C)(=O)=O)c(F)c2)n1-c1ccc(-c2ccco2)cc1 [Example 35, 5-[3-Fluoro-4-(methylsulfonyl)phenyl]-1-[4-(2-furyl)phenyl]-2-methyl-1H-pyrrole]
95 to 97 | CS(=O)(=O)c1ccc(-n2cc(C(F)(F)F)nc2-c2ccc(-c3cccs3)cc2)cc1 [Example 52, 1-[4-(Methylsulfonyl)phenyl]-2-[4-(2-thienyl)phenyl]-4-(trifluoromethyl)-1H-imidazole]
119 | Cc1noc(-c2ccc(S(C)(=O)=O)cc2)c1-c1ccc(-c2cscn2)cc1 [Example 191, 3-Methyl-5-[4-(methylsulfonyl)phenyl]-4-[4-(1,3-thiazol-4-yl)phenyl]isoxazole]
205 | Cc1cc(S(C)(=O)=O)ccc1-n1nc(C(F)(F)F)cc1-c1ccc(-c2ccco2)cc1 (as salt: hydrochloride) [Example 142, 5-[4-(2-Furyl)phenyl]-1-[4-(methylsulfonyl)-2-methylphenyl]-3-trifluoromethyl-1H-pyrazole]
188 to 190 | CS(=O)(=O)c1ccc(C2=C(c3ccc(-c4ccoc4)cc3)C(=O)OC2)cc1 [Example 34, 3-[4-(3-Furyl)phenyl]-4-[4-(methylsulfonyl)phenyl]-2-(5H)-furanone]
145 to 147 | Cc1cn(-c2ccc(S(N)(=O)=O)c(F)c2)c(-c2ccc(-c3cscn3)cc2)n1 [Example 179, 2-Fluoro-4-[4-methyl-2-[4-(4-thiazolyl)phenyl]-1H-imidazol-1-yl]benzenesulfonamide]
215 | Cc1ccc(-c2ccc(S(C)(=O)=O)c(F)c2)n1-c1ccc(-c2cscn2)cc1 [Example 151, 5-[3-Fluoro-4-(methylsulfonyl)phenyl]-2-methyl-1-[4-(4-thiazolyl)phenyl]-1H-pyrrole]
164 to 166 | COc1cc(-c2cc(C(F)(F)F)nn2-c2ccc(S(C)(=O)=O)cc2)ccc1-c1cscn1 (as salt: hydrochloride) [Example 120, 4-{2-Methoxy-4-[1-[4-(methylsulfonyl)phenyl]-3-(trifluoromethyl)-1H-pyrazol-5-yl]phenyl}-1,3-thiazole]
236.8 | CS(=O)(=O)c1ccc(C2=C(c3ccc(-c4cscn4)cc3)C(=O)OC2)cc1 [Example 182, 4-[4-(Methylsulfonyl)phenyl]-3-[4-(1,3-thiazol-4-yl)phenyl]-2(5H)-furanone]
165 to 168 | Cc1ccc(-c2ccc(S(C)(=O)=O)cc2)n1-c1ccc(-c2ccoc2)c(Cl)c1 [Example 41, 1-[3-Chloro-4-(3-furyl)phenyl]-2-methyl-5-[4-(methylsulfonyl)phenyl]-1H-pyrrole]
126 to 128 | CONC(=O)c1cc(-c2ccc(-c3ccco3)cc2)n(-c2ccc(S(C)(=O)=O)c(F)c2)n1 (as salt: hydrochloride) [Example 134, N-Methoxy-1-[3-fluoro-4-(methylsulfonyl)phenyl]-5-[4-(2-furyl)phenyl]-1H-pyrazole-3-carboxamide]
188 to 190 | NS(=O)(=O)c1ccc(-n2nc(C(F)(F)F)cc2-c2ccc(-c3cscn3)cc2)cc1 (as salt: hydrochloride) [Example 100, 4-[5-[4-(1,3-Thiazol-4-yl)phenyl]-3-(trifluoromethyl)-1H-pyrazol-1-yl]benzenesulfonamide]
127 to 131 | Cc1ccc(-c2ccc(S(C)(=O)=O)cc2)n1-c1ccc(-c2ccco2)c(Cl)c1 [Example 42, 1-[3-Chloro-4-(2-furyl)phenyl]-2-methyl-5-[4-(methylsulfonyl)phenyl]-1H-pyrrole]
143 to 145 | CS(=O)(=O)c1ccc(-n2nc(C(F)(F)F)cc2-c2ccc(-c3ccco3)c(Cl)c2)cc1 (as salt: hydrochloride) [Example 71, 1-[4-(Methylsulfonyl)phenyl]-5-[3-chloro-4-(2-furyl)phenyl]-3-(trifluoromethyl)-1H-pyrazole]
206.7 | COc1cc(-n2nc(C(F)(F)F)cc2-c2ccc(-c3ccco3)cc2)ccc1S(N)(=O)=O (as salt: hydrochloride) [Example 148, 4-[5-[4-(2-Furyl)phenyl]-3-(trifluoromethyl)-1H-pyrazol-1-yl]-2-methoxybenzenesulfonamide]
185 to 186 | Cc1ccc(-c2ccc(S(C)(=O)=O)cc2)n1-c1ccc(-c2cccs2)cc1 [Example 45, 2-Methyl-5-[4-(methylsulfonyl)phenyl]-1-[4-(2-thienyl]phenyl]-1H-pyrrole]
160 to 162 | Cc1cc(-n2c(C)ccc2-c2ccc(S(C)(=O)=O)cc2)ccc1-c1ccco1 [Example 40, 1-[4-(2-Furyl)-3-methylphenyl]-2-methyl-5-[4-(methylsulfonyl)phenyl]-1H-pyrrole]
138.9 | COc1cc(-n2nc(C(F)(F)F)cc2-c2ccc(-c3ccco3)cc2)ccc1S(C)(=O)=O (as salt: hydrochloride) [Example 136, 5-[4-(2-Furyl)phenyl]-1-[3-methoxy-4-(methylsulfonyl)phenyl]-3-trifluoromethyl-1H-pyrazole]
187 to 188 | Cc1ccc(-c2ccc(S(C)(=O)=O)cc2)n1-c1ccc(-c2ccsc2)cc1 [Example 46, 2-Methyl-5-[4-(methylsulfonyl)phenyl]-1-[4-(3-thienyl)phenyl]-1H-pyrrole]
